We go through 19 compounds from PubChem BioAssay AID330 (DTP/NCI, 2004).

This assay has as its system P388 leukemia ip, CD2F1 mice, survival T/C. As to the kind of experiment: NCI In Vivo Anticancer Drug Screen. Data for tumor model P388 Leukemia (intraperitoneal) in CD2F1 (CDF1) mice. As to conditions: endpoint: median survival time, higher = longer survival. The essentials:
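Mice carrying the transplanted tumor received test compound or vehicle. Survival was recorded in each group, and the value is the treated-group measurement divided by that of the vehicle-treated control group.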

The mark [1] stands for this setting: dose: 30.0 mg/kg/injection, schedule: Q01DX005 (ip), vehicle: saline with Tween-80.
The mark [2] stands for this setting: dose: 60.0 mg/kg/injection, schedule: Q01DX005 (ip), vehicle: saline with Tween-80.
Where [3] appears, read: dose: 240.0 mg/kg/injection, schedule: Q01DX005 (ip), vehicle: saline with Tween-80.
[4] abbreviates: dose: 25.0 mg/kg/injection, schedule: Q01DX009 (ip), vehicle: saline with Tween-80.
[5] abbreviates: dose: 50.0 mg/kg/injection, schedule: Q01DX009 (ip), vehicle: saline with Tween-80.
Setting [6] is: dose: 100.0 mg/kg/injection, schedule: Q01DX009 (ip), vehicle: saline with Tween-80.
Setting [7] is: dose: 100.0 mg/kg/injection, schedule: Q04DX003 (ip), vehicle: saline with Tween-80.
[8] abbreviates: dose: 200.0 mg/kg/injection, schedule: Q04DX003 (ip), vehicle: saline with Tween-80.
The mark [9] stands for this setting: dose: 400.0 mg/kg/injection, schedule: Q04DX003 (ip), vehicle: saline with Tween-80.
Setting [10] is: dose: 100.0 mg/kg/injection, schedule: Q04DX003 (ip), vehicle: saline.
The mark [11] stands for this setting: dose: 200.0 mg/kg/injection, schedule: Q04DX003 (ip), vehicle: saline.
Setting [12] is: dose: 120.0 mg/kg/injection, schedule: Q01DX005 (ip), vehicle: saline with Tween-80.
[13] abbreviates: dose: 6.25 mg/kg/injection, schedule: Q01DX009 (ip), vehicle: water.
Where [14] appears, read: dose: 12.5 mg/kg/injection, schedule: Q01DX009 (ip), vehicle: water.
[15] abbreviates: dose: 25.0 mg/kg/injection, schedule: Q01DX009 (ip), vehicle: water.
Where [16] appears, read: dose: 100.0 mg/kg/injection, schedule: Q01DX009 (ip), vehicle: water.

“And” between values parts separate entries of the source, which are not always exact repeats. Equal values may be shown once. Toxic doses and inconclusive results are not listed.

Consider `Cc1cc2c(=O)cc(-c3ccccc3)oc2c(C(=O)O)c1C`, for which the T/C under setting [1] was 103 % of control; the T/C under setting [2] is 114 % of control and 118 % of control; the T/C under setting [3] is 161 % of control.
Consider `O=C(O)Cc1ccccc1C(=O)O.[Pb]`, for which the T/C under setting [4] was 90 % of control, the T/C under setting [5] was 104 % of control and the T/C under setting [6] was 86 % of control.
Take `NC(=S)N/N=C/c1ccc(C(F)(F)F)cn1`: the T/C is 96 % of control (dose: 3.8 mg/kg/injection, schedule: Q01DX009 (ip), vehicle: Klucel (hydroxypropylcellulose) (HPC)); 93 % of control (dose: 5.8 mg/kg/injection, schedule: Q01DX009 (ip), vehicle: Klucel (hydroxypropylcellulose) (HPC)); 107 % of control (dose: 6.0 mg/kg/injection, schedule: Q01DX009 (ip), vehicle: Klucel (hydroxypropylcellulose) (HPC)); 93 % of control (dose: 8.8 mg/kg/injection, schedule: Q01DX009 (ip), vehicle: Klucel (hydroxypropylcellulose) (HPC)); 114 % of control (dose: 8.9 mg/kg/injection, schedule: Q01DX009 (ip), vehicle: Klucel (hydroxypropylcellulose) (HPC)); 114 % of control and 93 % of control (dose: 13.3 mg/kg/injection, schedule: Q01DX009 (ip), vehicle: Klucel (hydroxypropylcellulose) (HPC)). Also, the T/C is 101 % of control and 121 % of control (dose: 20.0 mg/kg/injection, schedule: Q01DX009 (ip), vehicle: Klucel (hydroxypropylcellulose) (HPC)); 114 % of control (dose: 30.0 mg/kg/injection, schedule: Q01DX009 (ip), vehicle: Klucel (hydroxypropylcellulose) (HPC)).
Turning to `CC1(C)C(C)(C)C1(Cl)S(C)(=O)=O`, the T/C under setting [7] was 101 % of control, the T/C under setting [8] is 106 % of control and the T/C under setting [9] was 106 % of control.
As for `CCCCN=Cc1ccccc1`, the T/C is 100 % of control under setting [7] and 100 % of control under setting [8].
Take `CC1(C)N=C(N)N=C(N)N1c1ccc(OCCOc2ccc(S(=O)(=O)F)cc2)c(Cl)c1`: the T/C reads like this: (dose: 12.5 mg/kg/injection, schedule: Q04DX003 (ip), vehicle: saline) 159 % of control; (dose: 25.0 mg/kg/injection, schedule: Q04DX003 (ip), vehicle: saline) 181 % of control and 185 % of control; (dose: 50.0 mg/kg/injection, schedule: Q04DX003 (ip), vehicle: saline) 181 % of control and 185 % of control; under setting [7], 175 % of control; under setting [10], 190 % of control and 200 % of control; (dose: 132.0 mg/kg/injection, schedule: Q04DX003 (ip), vehicle: saline with Tween-80) 162 % of control. Moreover, the T/C is, setting by setting: under setting [8], 185 % of control; under setting [11], 109 % of control.
Regarding `COc1ccc2c(c1)CN(Cc1ccccc1)CO2`, the T/C is, setting by setting: under setting [2], 104 % of control; under setting [12], 105 % of control; under setting [3], 102 % of control.
For `Cc1cnc(C)n2cnnc12`, the T/C under setting [10] is 93 % of control; the T/C under setting [11] is 95 % of control; the T/C (dose: 400.0 mg/kg/injection, schedule: Q04DX003 (ip), vehicle: saline) is 98 % of control.
Consider `c1ccc(-c2ccc[n+](CC[n+]3cccc(-c4ccccn4)c3)c2)nc1`, for which the T/C under setting [2] is 104 % of control and the T/C under setting [12] was 100 % of control.
Take `COc1cc(C(=O)c2cc3c(cc2C)OCO3)cc(OC)c1OC`: the T/C (dose: 25.0 mg/kg/injection, schedule: Q01DX009 (ip), vehicle: Klucel (hydroxypropylcellulose) (HPC)) was 109 % of control and the T/C (dose: 50.0 mg/kg/injection, schedule: Q01DX009 (ip), vehicle: Klucel (hydroxypropylcellulose) (HPC)) is 113 % of control.
`Nc1ccc(N=O)c(N)n1`: the T/C is 98 % of control (dose: 0.78 mg/kg/injection, schedule: Q01DX009 (ip), vehicle: saline); 86 % of control (dose: 1.56 mg/kg/injection, schedule: Q01DX009 (ip), vehicle: saline); 107 % of control (dose: 6.25 mg/kg/injection, schedule: Q01DX009 (ip), vehicle: saline with Tween-80); 98 % of control (dose: 12.5 mg/kg/injection, schedule: Q01DX009 (ip), vehicle: saline with Tween-80); 98 % of control (dose: 12.5 mg/kg/injection, schedule: Q01DX009 (ip), vehicle: saline); 100 % of control under setting [4]. Where the note is “dose: 50.0 mg/kg/injection, schedule: Q01DX009 (ip), vehicle: saline”, the T/C is 106 % of control.
On to `CC(=O)NC1CCCCC1[Se](=O)c1ccccc1` (stereo not given), for which the T/C runs as follows: (dose: 50.0 mg/kg/injection, schedule: Q01DX005 (ip), vehicle: saline with Tween-80) 108 % of control; (dose: 100.0 mg/kg/injection, schedule: Q01DX005 (ip), vehicle: saline with Tween-80) 100 % of control; (dose: 200.0 mg/kg/injection, schedule: Q01DX005 (ip), vehicle: saline with Tween-80) 109 % of control.
For the compound `CC(=NC1CCCCC1)Nc1ccc(NC(=O)c2ccc(C(=O)Nc3ccc(NC(C)=NC4CCCCC4)cc3)cc2)cc1`, the T/C runs as follows: (dose: 25.0 mg/kg/injection, schedule: Q01DX005 (ip), vehicle: Klucel (hydroxypropylcellulose) (HPC)) 98 % of control; (dose: 50.0 mg/kg/injection, schedule: Q01DX005 (ip), vehicle: Klucel (hydroxypropylcellulose) (HPC)) 104 % of control; (dose: 100.0 mg/kg/injection, schedule: Q01DX005 (ip), vehicle: Klucel (hydroxypropylcellulose) (HPC)) 98 % of control; (dose: 200.0 mg/kg/injection, schedule: Q01DX005 (ip), vehicle: Klucel (hydroxypropylcellulose) (HPC)) 102 % of control.
On to `COC(=O)CNP(=O)(NCC(=O)OC)N(CCCl)CCCl`, for which the T/C is 102 % of control (dose: 30.0 mg/kg/injection, schedule: Q01DX005 (ip), vehicle: saline); 115 % of control (dose: 60.0 mg/kg/injection, schedule: Q01DX005 (ip), vehicle: saline); 153 % of control and 161 % of control (dose: 120.0 mg/kg/injection, schedule: Q01DX005 (ip), vehicle: saline); 161 % of control and 238 % of control (dose: 240.0 mg/kg/injection, schedule: Q01DX005 (ip), vehicle: saline).
As for `CN(C)c1nc(N)nc(Nc2ccc(Br)cc2)c1N=O`, the T/C is 100 % of control under setting [4]; 91 % of control under setting [5]; 113 % of control (dose: 100.0 mg/kg/injection, schedule: Q01DX009 (ip), vehicle: Klucel (hydroxypropylcellulose) (HPC)); 100 % of control under setting [6]; 108 % of control under setting [7]; 109 % of control (dose: 200.0 mg/kg/injection, schedule: Q01DX009 (ip), vehicle: Klucel (hydroxypropylcellulose) (HPC)). The T/C was 95 % of control under setting [8]; 95 % of control (dose: 400.0 mg/kg/injection, schedule: Q01DX009 (ip), vehicle: Klucel (hydroxypropylcellulose) (HPC)); 95 % of control under setting [9].
`CC(C)(C)OC(=O)NCC(=O)ON1C(=O)CCC1=O`: the T/C by setting is: under setting [5], 118 % of control; under setting [6], 102 % of control.
With `CC(=O)Oc1ccc(N2C(=O)C3C(C2=O)C2c4ccccc4C3C3CCCCN32)cc1` (stereo not given) (tested in a mixture with another compound), the T/C by setting is: under setting [13], 101 % of control; under setting [14], 111 % of control; under setting [15], 104 % of control; (dose: 50.0 mg/kg/injection, schedule: Q01DX009 (ip), vehicle: water) 102 % of control; under setting [16], 104 % of control.
On to `N=C(N)SC12CC3CC(CC(C3)C1)C2`, for which the T/C was 93 % of control (dose: 7.5 mg/kg/injection, schedule: Q01DX005 (ip), vehicle: saline with Tween-80); 98 % of control (dose: 15.0 mg/kg/injection, schedule: Q01DX005 (ip), vehicle: saline with Tween-80); 99 % of control under setting [1]; 98 % of control under setting [2].
`O=NN(CCS(=O)CCCl)C(=O)NC1CCCCC1` (stereo not given): the T/C reads like this: (dose: 3.13 mg/kg/injection, schedule: Q01DX009 (ip), vehicle: water) 102 % of control; under setting [13], 110 % of control; under setting [14], 111 % of control; under setting [15], 124 % of control; under setting [16], 159 % of control.
